# Test results as given in patent US20250346582A1, “SPLEEN TYROSINE KINASE INHIBITORS AND METHODS OF USE THEREOF” (THE BOARD OF TRUSTEES OF THE UNIVERSITY OF ILLINOIS, priority 2022, published 2025).
# Molecular target: T1, Syk-cSH2 (Homo sapiens, UniProt P43405)
# T1 construct: polyhistidine (N); made in house; host or cells: Escherichia coli BL21 (DE3) pLysS
# Assay: Fluorescence quenching vesicle binding assay, Syk-cSH2
# Details: not given
# Procedure: The membrane-binding assay is based on fluorescence quenching of EGFP fused to a SH2 domain by a dark quencher containing lipid, dabsyl-PE, incorporated in lipid vesicles. The plate reader assay was performed using the Synergy™ Neo spectrofluorometer at 25° C. Nontreated black polystyrene 96-well plates (Corning) were used. Protein (10-50 nM) with the increasing concentration of vesicles with a given lipid composition in 20 mM Tris buffer, pH 7.4, containing 0.16 M NaCl was added to each row of wells and the EGFP fluorescence emission at 516 nm was measured with excitation set at 485 nm. Z′ factor for the assay system was determined as described^74. Imax and IC50 values of inhibitors were determined using the equation, I=Imax/(1+IC50/[I]) where I and [I] indicate % inhibition and inhibitor concentration, respectively. The average and standard deviation values were obtained from triplicate determinations.
# We also optimized a recently developed fluorescence quenching-based lipid-binding assay^47 for high-throughput screening of these molecules for their inhibitory activity against the PIP3-SH2 interaction. Specifically, we expressed SH2 domains as EGFP-tagged proteins and directly quantified their membrane binding by monitoring the quenching of EGFP fluorescence emission intensity by a dark quencher-containing lipid, N-dimethylaminoazo-benzenesulfonyl-phosphatidylethanolamine (dabsyl-PE), incorporated in the vesicles. We then screened for compounds that inhibited binding of Syk-cSH2, BLNK-SH2, and PLCγ2-cSH2, respectively, to 1-palmitoyl-2-oleoyl-PC (POPC)/1-palmitoyl-2-oleoyl-PS (POPS)/PIP3/dabsyl-PE (67:20:3:10) vesicles while eliminating those that inhibit their non-specific binding to anionic POPC/POPS/dabsyl-PE (70:20:10) vesicles. The quality of the screening system was evaluated using 1% dimethylsulfoxide (DMSO) and 20 μM D-myo-inositol-1,3,4,5-tetraphosphate (IP4) as negative and positive controls, respectively. The clear separation of positive and negative control data and the average Z′-factor of 0.7 supported the robustness of our system for high-throughput screen of PIP3-SH2 interaction inhibitors.
row,SMILES,IC50
1,CCOP(=O)(OCC)C(=[N+]=[N-])C(Nc1ccccn1)c1ccc(C)cc1 (stereo not drawn) [WC-75],7 µM
2,CCOP(=O)(/C=C(\Nc1ccccn1)c1ccc(C)cc1)OCC [WC-85],12 µM

# Same assay, conditions: Table 3; efficacy determined by the vesicle binding assay
row,SMILES,Imax (%)
1,[N-]=[N+]=C(C(=O)OC1CCCCC1)C(Nc1ncccn1)c1ccc(O)cc1 (stereo not drawn) [WC = 42],Imax (%) = 12
2,COc1ccc(C(Nc2ncccn2)C(=[N+]=[N-])C(=O)OC2CCCCC2)cc1 (stereo not drawn) [WC-30],Imax (%) = 10
3,[N-]=[N+]=C(C(=O)OC1CCCCC1)C(Nc1ncccn1)c1ccc(F)cc1 (stereo not drawn) [WC-32],Imax (%) = 10
4,CN(C)c1ccc(C(Nc2ncccn2)C(=[N+]=[N-])C(=O)OC2CCCCC2)cc1 (stereo not drawn) [WC-34],Imax (%) = 10
5,[N-]=[N+]=C(C(=O)OC1CCCCC1)C(Nc1ncccn1)c1cccs1 (stereo not drawn) [WC-37],Imax (%) = 15
6,COc1cc(OC)cc(C(Nc2ncccn2)C(=[N+]=[N-])C(=O)OC2CCCCC2)c1 (stereo not drawn) [WC-45],Imax (%) = 12
7,[N-]=[N+]=C(C(=O)OC1CCCCC1)C(Nc1ncccn1)c1ccccc1 (stereo not drawn) [WC-46],Imax (%) = 10
8,CC(C)(C)OC(=O)C(=[N+]=[N-])C(Nc1ccccn1)c1ccc(Br)cc1 (stereo not drawn) [WC-50],Imax (%) = 10
9,[N-]=[N+]=C(C(=O)OC1CCCCC1)C(Nc1ccccn1)c1ccc(O)c(Br)c1 (stereo not drawn) [WC-52],Imax (%) = 12
10,Cc1ccc(C(Nc2ncccn2)C(=[N+]=[N-])C(=O)OC(C)(C)C)cc1 (stereo not drawn) [WC-56],Imax (%) ≤ 10
11,COc1cc(C(Nc2ncccn2)C(=[N+]=[N-])C(=O)OC(C)(C)C)cc(OC)c1OC (stereo not drawn) [WC-59],Imax (%) ≤ 10
12,[N-]=[N+]=C(C(=O)OC1CCCCC1)C(Nc1ccccn1)c1ccc(Br)cc1 (stereo not drawn) [WC-62],Imax (%) ≤ 10
13,[N-]=[N+]=C(C(=O)OC1CCCCC1)C(Nc1ncccn1)c1ccc(Br)cc1 (stereo not drawn) [WC-68],Imax (%) ≤ 10
14,[N-]=[N+]=C(C(=O)OC1CCCCC1)C(Nc1ncccn1)c1c(F)c(F)c(F)c(F)c1F (stereo not drawn) [WC-70],Imax (%) ≤ 10
15,Cc1ccc(C(Nc2cnccn2)C(=[N+]=[N-])C(=O)OC2CCCCC2)cc1 (stereo not drawn) [WC-73],Imax (%) ≤ 10
16,CCOP(=O)(OCC)C(=[N+]=[N-])C(Nc1ccccn1)c1ccc(C)cc1 (stereo not drawn) [WC-75],Imax (%) = 12
17,CCOP(=O)(/C=C(\Nc1ccccn1)c1ccc(C)cc1)OCC [WC-85],Imax (%) ≤ 10

# Other lines, results leading:
row,Imax (%),SMILES
1,Imax (%) ≤ 10,Cc1ccc(C(CC(=O)OC2CCCCC2)Nc2ncccn2)cc1 (stereo not drawn) [WC-79]
2,Imax (%) = > 10,Cc1ccc(/C(=C/C(=O)OC2CCCCC2)Nc2cnccn2)cc1 [WC-80]
3,Imax (%) ≤ 10,CCOC(=O)/C=C(\NS(=O)(=O)c1ccccc1)c1ccc(C)cc1 [WC-90]
4,Imax (%) = 15,Cc1ccc(C(Nc2ncc(C)s2)C(=[N+]=[N-])C(=O)OC2CCCCC2)cc1 (stereo not drawn) [WC-92]
5,Imax (%) ≤ 10,Cc1ccc(C(Nc2cc(C)ccn2)C(=[N+]=[N-])C(=O)OC2CCCCC2)cc1 (stereo not drawn) [WC-95]
6,Imax (%) = 18,Cc1ccc(C(Nc2ncccn2)C(=[N+]=[N-])C(=O)OC2CCCC2)cc1 (stereo not drawn) [WC-100]
7,Imax (%) = 15,Cc1ccc(C(Nc2ncccn2)C(=[N+]=[N-])C(=O)ON2CCC(C)CC2)cc1 (stereo not drawn) [WC-105]
8,Imax (%) = 20,Cc1ccc(C(Nc2ncccn2)C(=[N+]=[N-])C(=O)ON2CCOCC2)cc1 (stereo not drawn) [WC-108]
9,Imax (%) = 25,Cc1ccc(C(Nc2ncccn2)C(=[N+]=[N-])C(=O)ON2CCN(C)CC2)cc1 (stereo not drawn) [WC-109]
10,Imax (%) ≤ 10,CCOC(=O)C(=[N+]=[N-])C(Nc1ccccn1)c1ccccc1 (stereo not drawn) [WC-110]

# Same assay, conditions: Table 3; efficacy determined by the vesicle binding assay; read-out: IC50
row,SMILES,IC50
1,[N-]=[N+]=C(C(=O)OC1CCCCC1)C(Nc1ncccn1)c1ccc(O)cc1 (stereo not drawn) [WC = 42],4 µM
2,COc1ccc(C(Nc2ncccn2)C(=[N+]=[N-])C(=O)OC2CCCCC2)cc1 (stereo not drawn) [WC-30],3.8 µM
3,[N-]=[N+]=C(C(=O)OC1CCCCC1)C(Nc1ncccn1)c1ccc(F)cc1 (stereo not drawn) [WC-32],5 µM
4,CN(C)c1ccc(C(Nc2ncccn2)C(=[N+]=[N-])C(=O)OC2CCCCC2)cc1 (stereo not drawn) [WC-34],2.8 µM
5,[N-]=[N+]=C(C(=O)OC1CCCCC1)C(Nc1ncccn1)c1cccs1 (stereo not drawn) [WC-37],2.8 µM
6,COc1cc(OC)cc(C(Nc2ncccn2)C(=[N+]=[N-])C(=O)OC2CCCCC2)c1 (stereo not drawn) [WC-45],3.6 µM
7,[N-]=[N+]=C(C(=O)OC1CCCCC1)C(Nc1ncccn1)c1ccccc1 (stereo not drawn) [WC-46],5 µM
8,CC(C)(C)OC(=O)C(=[N+]=[N-])C(Nc1ccccn1)c1ccc(Br)cc1 (stereo not drawn) [WC-50],4.5 µM
9,[N-]=[N+]=C(C(=O)OC1CCCCC1)C(Nc1ccccn1)c1ccc(O)c(Br)c1 (stereo not drawn) [WC-52],3.5 µM
10,Cc1ccc(C(Nc2ncccn2)C(=[N+]=[N-])C(=O)OC(C)(C)C)cc1 (stereo not drawn) [WC-56],2 µM
11,COc1cc(C(Nc2ncccn2)C(=[N+]=[N-])C(=O)OC(C)(C)C)cc(OC)c1OC (stereo not drawn) [WC-59],4 µM
12,[N-]=[N+]=C(C(=O)OC1CCCCC1)C(Nc1ccccn1)c1ccc(Br)cc1 (stereo not drawn) [WC-62],5 µM
13,[N-]=[N+]=C(C(=O)OC1CCCCC1)C(Nc1ncccn1)c1ccc(Br)cc1 (stereo not drawn) [WC-68],4.5 µM
14,[N-]=[N+]=C(C(=O)OC1CCCCC1)C(Nc1ncccn1)c1c(F)c(F)c(F)c(F)c1F (stereo not drawn) [WC-70],2.5 µM
15,Cc1ccc(C(Nc2cnccn2)C(=[N+]=[N-])C(=O)OC2CCCCC2)cc1 (stereo not drawn) [WC-73],8 µM

# Next, values leading:
row,IC50,SMILES
1,10 µM,Cc1ccc(C(CC(=O)OC2CCCCC2)Nc2ncccn2)cc1 (stereo not drawn) [WC-79]
2,15 µM,Cc1ccc(/C(=C/C(=O)OC2CCCCC2)Nc2cnccn2)cc1 [WC-80]
3,20 µM,CCOC(=O)/C=C(\NS(=O)(=O)c1ccccc1)c1ccc(C)cc1 [WC-90]
4,10 µM,Cc1ccc(C(Nc2ncc(C)s2)C(=[N+]=[N-])C(=O)OC2CCCCC2)cc1 (stereo not drawn) [WC-92]
5,5 µM,Cc1ccc(C(Nc2cc(C)ccn2)C(=[N+]=[N-])C(=O)OC2CCCCC2)cc1 (stereo not drawn) [WC-95]
6,2 µM,Cc1ccc(C(Nc2ncccn2)C(=[N+]=[N-])C(=O)OC2CCCC2)cc1 (stereo not drawn) [WC-100]
7,4 µM,Cc1ccc(C(Nc2ncccn2)C(=[N+]=[N-])C(=O)ON2CCC(C)CC2)cc1 (stereo not drawn) [WC-105]
8,2 µM,Cc1ccc(C(Nc2ncccn2)C(=[N+]=[N-])C(=O)ON2CCOCC2)cc1 (stereo not drawn) [WC-108]
9,2 µM,Cc1ccc(C(Nc2ncccn2)C(=[N+]=[N-])C(=O)ON2CCN(C)CC2)cc1 (stereo not drawn) [WC-109]
10,5 µM,CCOC(=O)C(=[N+]=[N-])C(Nc1ccccn1)c1ccccc1 (stereo not drawn) [WC-110]
